ChEMBL document CHEMBL5723379, “Affinity On-target Cellular Literature for EUbOPEN Chemogenomic Library” (2024)
Each block holds one compound with its values, some of them ahead of it.

Columns and labels:
Parameters in all cases: mode of action Inhibitor, recommended concentration 1 uM
[1] = biological target: Sodium/hydrogen exchanger 3 (Homo sapiens, UniProt P48764); experiment: Affinity On-target Cellular interaction: (Inhibition of Na+/H+ exchange, detection of fluorescence changes in acridine orange pH indicator, mouse fibroblast L cell line) EUB0002709aCl SLC9A3; type: functional, cell-based, LAP1
Sequence of Sodium/hydrogen exchanger 3 (P48764 whole entry): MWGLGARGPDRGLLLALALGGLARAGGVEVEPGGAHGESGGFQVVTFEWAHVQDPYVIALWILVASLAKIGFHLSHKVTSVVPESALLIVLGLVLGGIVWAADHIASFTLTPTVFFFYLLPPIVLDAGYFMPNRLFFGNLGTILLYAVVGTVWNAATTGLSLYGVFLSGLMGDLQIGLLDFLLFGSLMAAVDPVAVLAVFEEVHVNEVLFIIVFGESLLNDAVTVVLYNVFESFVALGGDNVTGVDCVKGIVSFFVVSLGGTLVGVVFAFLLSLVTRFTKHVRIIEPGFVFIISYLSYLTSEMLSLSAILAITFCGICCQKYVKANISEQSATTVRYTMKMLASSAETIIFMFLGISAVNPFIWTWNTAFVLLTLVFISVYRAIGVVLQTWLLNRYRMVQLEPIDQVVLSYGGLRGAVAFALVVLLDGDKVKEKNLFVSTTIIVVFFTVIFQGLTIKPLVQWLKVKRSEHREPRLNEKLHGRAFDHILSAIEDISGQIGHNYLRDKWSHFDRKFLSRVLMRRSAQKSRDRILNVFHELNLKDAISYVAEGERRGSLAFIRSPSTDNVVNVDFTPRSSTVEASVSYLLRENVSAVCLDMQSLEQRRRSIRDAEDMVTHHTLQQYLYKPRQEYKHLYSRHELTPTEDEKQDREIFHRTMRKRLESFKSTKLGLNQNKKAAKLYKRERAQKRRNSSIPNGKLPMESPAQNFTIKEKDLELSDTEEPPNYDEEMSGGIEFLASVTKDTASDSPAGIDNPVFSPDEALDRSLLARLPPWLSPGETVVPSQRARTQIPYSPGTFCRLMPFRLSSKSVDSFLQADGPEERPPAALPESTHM

[2] = biological target: Monocarboxylate transporter 8 (Homo sapiens, UniProt P36021); experiment: Affinity On-target Cellular interaction: (Inhibition of radiolabelled [125I]T3 uptake by target expressed in MDCK1 cells) EUB0002712a SLC16A2; type: functional, cell-based, MDCK-I
Sequence of Monocarboxylate transporter 8 (P36021 whole entry): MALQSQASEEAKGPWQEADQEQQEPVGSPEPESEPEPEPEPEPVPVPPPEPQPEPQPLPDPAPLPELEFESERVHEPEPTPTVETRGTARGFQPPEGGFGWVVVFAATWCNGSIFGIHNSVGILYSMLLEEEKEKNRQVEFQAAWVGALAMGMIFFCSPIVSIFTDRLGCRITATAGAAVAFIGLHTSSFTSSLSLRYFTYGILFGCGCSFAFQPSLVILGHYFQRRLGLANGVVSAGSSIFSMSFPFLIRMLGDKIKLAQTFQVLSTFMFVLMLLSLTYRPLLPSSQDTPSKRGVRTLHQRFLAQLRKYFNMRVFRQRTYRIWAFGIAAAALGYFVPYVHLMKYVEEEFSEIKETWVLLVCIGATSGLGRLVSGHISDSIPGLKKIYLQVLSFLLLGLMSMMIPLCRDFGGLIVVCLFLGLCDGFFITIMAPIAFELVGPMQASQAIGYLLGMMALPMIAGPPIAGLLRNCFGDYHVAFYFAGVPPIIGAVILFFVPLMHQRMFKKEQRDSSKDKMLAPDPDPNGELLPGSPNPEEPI

[3] = biological target: T1, Acid ceramidase (Homo sapiens, UniProt Q13510); experiment: Affinity On-target Cellular interaction: (Inhibition of ASAH1 in A375 cell lysates overexpressing ASAH1) EUB0002722a ASAH1; type: functional, subcellular, A-375
T1 sequence (Q13510 22-142 limits assumed): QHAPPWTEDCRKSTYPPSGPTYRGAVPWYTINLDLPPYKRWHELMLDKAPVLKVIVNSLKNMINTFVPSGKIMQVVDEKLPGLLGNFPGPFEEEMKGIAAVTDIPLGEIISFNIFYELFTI
T1 sequence (Q13510 143-395 limits assumed): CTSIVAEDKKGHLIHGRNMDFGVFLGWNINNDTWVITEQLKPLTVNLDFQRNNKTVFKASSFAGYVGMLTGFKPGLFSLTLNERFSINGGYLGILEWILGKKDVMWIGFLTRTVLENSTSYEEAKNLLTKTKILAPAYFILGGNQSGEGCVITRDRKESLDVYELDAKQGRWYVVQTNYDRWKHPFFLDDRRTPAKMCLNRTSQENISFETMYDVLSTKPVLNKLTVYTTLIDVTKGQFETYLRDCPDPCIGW

[4] = biological target: T2, Monocarboxylate transporter 4 (Homo sapiens, UniProt O15427); experiment: (§1) Affinity On-target Cellular interaction: (Inhibition of lactate import in MDA-MB-231 cells) EUB0002761a SLC16A3; type: functional, cell-based
T2 sequence (O15427 whole entry): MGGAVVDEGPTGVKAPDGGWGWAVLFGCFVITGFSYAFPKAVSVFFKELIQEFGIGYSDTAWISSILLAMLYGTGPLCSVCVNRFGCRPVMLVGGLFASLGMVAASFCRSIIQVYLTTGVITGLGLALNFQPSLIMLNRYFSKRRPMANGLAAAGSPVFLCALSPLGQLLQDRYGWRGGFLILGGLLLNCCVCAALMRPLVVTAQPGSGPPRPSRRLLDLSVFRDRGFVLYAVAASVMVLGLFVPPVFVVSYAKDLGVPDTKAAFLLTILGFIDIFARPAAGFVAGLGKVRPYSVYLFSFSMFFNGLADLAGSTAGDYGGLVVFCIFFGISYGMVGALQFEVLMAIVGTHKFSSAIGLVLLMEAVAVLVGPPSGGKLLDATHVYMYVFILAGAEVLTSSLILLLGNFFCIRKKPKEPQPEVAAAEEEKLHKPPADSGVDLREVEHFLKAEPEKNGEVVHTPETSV

[5] = biological target: T2, Monocarboxylate transporter 4; experiment: as §1; type: functional, cell-based; remark: listed apart in the source
[6] = biological target: Sodium/hydrogen exchanger 1 (Homo sapiens, UniProt P19634); experiment: Affinity On-target Cellular interaction: ([Na+]uptake assay, PS-120 fibroblasts) EUB0002781aCl SLC9A1; type: functional, cell-based, PS120
Sequence of Sodium/hydrogen exchanger 1 (P19634 whole entry): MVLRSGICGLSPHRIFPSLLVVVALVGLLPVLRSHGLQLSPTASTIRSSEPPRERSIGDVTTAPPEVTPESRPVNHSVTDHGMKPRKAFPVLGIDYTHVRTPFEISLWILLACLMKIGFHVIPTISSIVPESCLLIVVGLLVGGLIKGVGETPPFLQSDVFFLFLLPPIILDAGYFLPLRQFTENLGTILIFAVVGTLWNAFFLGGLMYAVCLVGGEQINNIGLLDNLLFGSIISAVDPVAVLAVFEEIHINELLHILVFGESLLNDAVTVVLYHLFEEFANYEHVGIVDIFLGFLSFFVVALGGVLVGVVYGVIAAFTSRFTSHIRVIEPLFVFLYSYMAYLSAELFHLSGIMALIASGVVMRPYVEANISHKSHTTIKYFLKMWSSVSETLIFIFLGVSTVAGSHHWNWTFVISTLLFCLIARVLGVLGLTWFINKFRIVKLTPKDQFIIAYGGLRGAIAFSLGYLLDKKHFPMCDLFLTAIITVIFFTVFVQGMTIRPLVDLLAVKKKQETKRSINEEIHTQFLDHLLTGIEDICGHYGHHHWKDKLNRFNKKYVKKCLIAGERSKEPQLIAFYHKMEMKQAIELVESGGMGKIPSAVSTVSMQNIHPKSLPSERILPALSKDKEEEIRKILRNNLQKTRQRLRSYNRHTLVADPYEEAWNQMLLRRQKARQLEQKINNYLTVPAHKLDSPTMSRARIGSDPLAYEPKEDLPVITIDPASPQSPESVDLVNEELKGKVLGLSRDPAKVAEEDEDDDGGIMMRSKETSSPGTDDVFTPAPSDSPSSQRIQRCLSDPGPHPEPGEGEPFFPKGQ

[7] = biological target: Zinc transporter SLC39A7 (Homo sapiens, UniProt Q92504); experiment: Affinity On-target Cellular interaction: (HES-LUC reporter gene assay, U2OS cells) EUB0002669a SLC39A7; type: functional, cell-based
Sequence of Zinc transporter SLC39A7 (Q92504 whole entry): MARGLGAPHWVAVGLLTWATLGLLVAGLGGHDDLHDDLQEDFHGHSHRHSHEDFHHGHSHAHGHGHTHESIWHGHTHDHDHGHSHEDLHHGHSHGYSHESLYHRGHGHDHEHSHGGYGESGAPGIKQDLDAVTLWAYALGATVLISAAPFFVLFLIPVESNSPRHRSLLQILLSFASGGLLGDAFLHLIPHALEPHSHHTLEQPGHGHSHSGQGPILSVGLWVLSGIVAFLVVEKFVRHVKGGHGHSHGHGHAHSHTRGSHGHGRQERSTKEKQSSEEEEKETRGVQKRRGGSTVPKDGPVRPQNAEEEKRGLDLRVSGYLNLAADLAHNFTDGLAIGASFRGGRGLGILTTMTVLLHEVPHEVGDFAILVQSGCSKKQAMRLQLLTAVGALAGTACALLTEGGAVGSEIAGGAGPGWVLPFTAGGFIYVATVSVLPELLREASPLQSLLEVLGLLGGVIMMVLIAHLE

[8] = biological target: T3, Dipeptidyl peptidase 2 (Homo sapiens, UniProt Q9UHL4); experiment: (§2) Affinity On-target Cellular interaction: (inhibition of fluorogenic substrate cleavage, U937 cell) EUB0002750aCl DPP7; type: functional, cell-based, U-937
[9] = biological target: T3, Dipeptidyl peptidase 2; experiment: as §2; type: functional, cell-based, U-937; remark: listed apart in the source
[10] = biological target: Na(+)/citrate cotransporter (Homo sapiens, UniProt Q86YT5); experiment: Affinity On-target Cellular interaction: (Radiolabelled uptake assay with […], HEK293 cells) EUB0002721a SLC13A5; type: functional, cell-based
Sequence of Na(+)/citrate cotransporter (Q86YT5 whole entry): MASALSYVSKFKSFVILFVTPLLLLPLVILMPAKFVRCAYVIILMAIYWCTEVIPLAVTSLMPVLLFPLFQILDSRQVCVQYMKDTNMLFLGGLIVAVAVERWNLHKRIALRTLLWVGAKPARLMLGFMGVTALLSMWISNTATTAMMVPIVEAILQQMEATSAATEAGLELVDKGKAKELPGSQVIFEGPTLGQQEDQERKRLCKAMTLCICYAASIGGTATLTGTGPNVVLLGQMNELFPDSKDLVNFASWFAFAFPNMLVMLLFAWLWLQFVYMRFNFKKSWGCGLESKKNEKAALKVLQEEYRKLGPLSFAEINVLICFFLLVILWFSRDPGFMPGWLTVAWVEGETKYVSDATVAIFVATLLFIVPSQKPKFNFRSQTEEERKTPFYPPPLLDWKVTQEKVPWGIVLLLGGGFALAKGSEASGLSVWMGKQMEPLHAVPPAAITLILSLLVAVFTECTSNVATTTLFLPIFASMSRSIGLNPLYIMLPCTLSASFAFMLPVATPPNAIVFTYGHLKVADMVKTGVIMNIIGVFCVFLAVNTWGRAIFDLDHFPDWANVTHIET

[11] = biological target: T1, Acid ceramidase; experiment: Affinity On-target Cellular interaction: (Inhibition of ASAH1 in A375 cell lysates overexpressing ASAH1) EUB0002723a ASAH1; type: functional, subcellular, A-375

Structure (SMILES): CCCCCCCCCCCCC/C=C/[C@@H](O)[C@H](CO)NC(=O)CBr
Ki [3]: 29.7 nM

Structure (SMILES): CC(C)(OCc1cc(-c2cccc(OC3CC3)c2)n(-c2ccccc2Cl)n1)C(=O)O
IC50 [4]: 8.6 nM
IC50 [5]: 19 nM

Structure (SMILES): N=C(N)NC(=O)c1cnn(-c2cccc3ncccc23)c1C1CC1
IC50 [6]: 14 nM

Structure (SMILES): O=C1Nc2ccccc2C2(CCN(CC(Cc3ccccc3)Nc3nc4ccc(F)cc4s3)CC2)N1 (stereo unspecified)
IC50 [7]: 130 nM

Structure (SMILES): O=C(NCc1ccc(Cl)cc1)C1CCN(S(=O)(=O)c2cc(Cl)cc(Cl)c2)CC1
IC50 [10]: > 100 µM

Further lines, results first:

IC50 [1]: 20 nM
Structure (SMILES): CC(=Cc1cc(C)ccc1C=C(C)C(=O)NC(=N)N)C(=O)N=C(N)N

IC50 [2]: 110 nM
Structure (SMILES): COc1cc([C@@H]2Oc3c(O)cc([C@H]4Oc5cc(O)cc(O)c5C(=O)[C@@H]4O)cc3[C@H]2CO)ccc1O [SILICRISTIN A]

IC50 [8]: 0.14 nM
IC50 [9]: 0.21 nM
Structure (SMILES): N[C@@H](CCNCc1ccc(Cl)cc1)C(=O)N1CCCCC1

Ki [11]: 40.2 nM
Structure (SMILES): CCCCCCCCCCCCC/C=C/[C@@H](O)[C@H](CO)NC(=O)CCl
